Holding throughout (type): cell-based
Assay [1] deals with T1, hNaV1.3 (Homo sapiens, UniProt Q9NY46).
T1 construct: host or cells: HEK293
Kind of assay: Automated whole-cell patch-clamp (QPatch 16X), hNaV1.3. Particulars: HEK293 cells expressing hNaV1.3 + β1 subunit; QPatch 16X; holding −80 mV, step to 0 mV; peptide incubated 2 min; 0.1% BSA; mean, SEM and n (3-12). Summed up:
(§1)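 HEK293 cells stably expressing the channel (human subtypes with β1 subunit), held at −80 mV; 2 min peptide pre-incubation, then 20 ms steps to 0 mV after a 200 ms −120 mV conditioning pulse. Extracellular pH 7.3 with 20 mM TEA-Cl, CsF-based pipette solution, 0.1% BSA; IC50 from four-parameter Hill fit.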
(In general: Patch clamp records ionic current or voltage across a cell membrane.)

Assay [2] has as its target T2, hNaV1.2 (Homo sapiens, UniProt Q99250).
T2 construct: host or cells: HEK293
Briefly: Automated whole-cell patch-clamp (QPatch 16X), hNaV1.2. Particulars: for IC50: HEK293 cells expressing hNaV1.2 + β1 subunit, QPatch 16X, holding −80 mV, step to 0 mV, peptide incubated 2 min, 0.1% BSA, mean, SEM and n (2-7); for hNaV1.2-selectivity against hNaV1.3: ratio of potencies hNaV1.3 / hNaV1.2. Summed up:
as §1

Assay [3] concerns the target T3, hNaV1.7 (Homo sapiens, UniProt Q15858).
T3 construct: host or cells: HEK293
Kind of assay: Automated whole-cell patch-clamp (QPatch 16X), hNaV1.7. Particulars: for IC50: HEK293 cells expressing hNaV1.7 + β1 subunit, QPatch 16X, holding −80 mV, step to 0 mV, peptide incubated 2 min, 0.1% BSA, mean, SEM and n (3-9). The method, boiled down: as §1

Bridge positions count the residues as written; N and C are the ends. Peptide text beside a SMILES is read from it.

T1 sequence (Q9NY46 whole entry): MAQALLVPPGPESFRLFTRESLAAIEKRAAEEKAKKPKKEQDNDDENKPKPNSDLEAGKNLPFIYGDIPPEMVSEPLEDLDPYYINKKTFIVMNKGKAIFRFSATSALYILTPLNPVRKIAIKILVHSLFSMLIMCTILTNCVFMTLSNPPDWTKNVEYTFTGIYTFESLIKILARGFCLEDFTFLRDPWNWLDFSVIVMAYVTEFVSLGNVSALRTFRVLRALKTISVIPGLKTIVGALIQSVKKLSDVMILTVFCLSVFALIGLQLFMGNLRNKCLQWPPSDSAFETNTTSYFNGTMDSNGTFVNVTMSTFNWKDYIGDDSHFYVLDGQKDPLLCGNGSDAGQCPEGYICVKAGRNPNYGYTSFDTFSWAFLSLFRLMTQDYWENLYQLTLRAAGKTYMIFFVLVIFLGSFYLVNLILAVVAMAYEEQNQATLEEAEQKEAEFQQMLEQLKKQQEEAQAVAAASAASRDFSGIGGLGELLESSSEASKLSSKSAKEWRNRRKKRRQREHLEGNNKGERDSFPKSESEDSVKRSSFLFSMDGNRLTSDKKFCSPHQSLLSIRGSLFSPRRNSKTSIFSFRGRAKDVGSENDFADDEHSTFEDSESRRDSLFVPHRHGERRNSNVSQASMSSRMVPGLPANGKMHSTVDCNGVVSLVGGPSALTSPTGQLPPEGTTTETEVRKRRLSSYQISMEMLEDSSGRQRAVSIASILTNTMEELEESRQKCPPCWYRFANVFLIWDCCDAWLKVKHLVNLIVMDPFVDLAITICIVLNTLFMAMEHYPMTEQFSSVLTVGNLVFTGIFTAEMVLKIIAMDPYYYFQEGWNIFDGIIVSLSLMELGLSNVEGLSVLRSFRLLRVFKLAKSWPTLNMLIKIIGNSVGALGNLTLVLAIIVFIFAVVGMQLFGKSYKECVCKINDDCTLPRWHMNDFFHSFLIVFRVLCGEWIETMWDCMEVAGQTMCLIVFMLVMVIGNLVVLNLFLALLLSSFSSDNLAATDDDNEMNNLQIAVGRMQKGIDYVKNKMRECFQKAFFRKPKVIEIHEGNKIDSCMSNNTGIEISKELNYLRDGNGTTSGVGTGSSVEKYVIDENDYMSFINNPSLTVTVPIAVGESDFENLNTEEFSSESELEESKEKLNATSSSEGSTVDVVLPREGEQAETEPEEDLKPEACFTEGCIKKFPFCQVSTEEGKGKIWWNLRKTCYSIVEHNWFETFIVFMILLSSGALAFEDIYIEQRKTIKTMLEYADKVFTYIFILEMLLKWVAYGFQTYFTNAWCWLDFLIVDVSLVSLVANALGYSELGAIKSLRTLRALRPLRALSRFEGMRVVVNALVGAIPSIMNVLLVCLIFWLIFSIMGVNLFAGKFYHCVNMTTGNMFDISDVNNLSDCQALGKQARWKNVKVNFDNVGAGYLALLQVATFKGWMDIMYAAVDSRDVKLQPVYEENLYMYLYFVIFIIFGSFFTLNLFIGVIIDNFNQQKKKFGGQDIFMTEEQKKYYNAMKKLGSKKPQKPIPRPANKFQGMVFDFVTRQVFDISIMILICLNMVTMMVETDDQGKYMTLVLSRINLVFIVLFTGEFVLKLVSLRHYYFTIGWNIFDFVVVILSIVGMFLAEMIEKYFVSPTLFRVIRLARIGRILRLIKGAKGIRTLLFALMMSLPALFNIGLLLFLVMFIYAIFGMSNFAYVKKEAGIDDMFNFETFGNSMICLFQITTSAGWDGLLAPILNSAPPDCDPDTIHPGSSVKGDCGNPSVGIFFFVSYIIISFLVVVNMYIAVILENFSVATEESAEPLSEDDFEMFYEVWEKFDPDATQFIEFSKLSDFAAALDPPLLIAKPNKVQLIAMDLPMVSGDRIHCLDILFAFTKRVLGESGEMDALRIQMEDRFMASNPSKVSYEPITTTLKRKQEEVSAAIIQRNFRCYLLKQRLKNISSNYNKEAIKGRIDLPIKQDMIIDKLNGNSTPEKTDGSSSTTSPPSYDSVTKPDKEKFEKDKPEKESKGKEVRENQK
T1 sequence (Q07699 19-218, further chain): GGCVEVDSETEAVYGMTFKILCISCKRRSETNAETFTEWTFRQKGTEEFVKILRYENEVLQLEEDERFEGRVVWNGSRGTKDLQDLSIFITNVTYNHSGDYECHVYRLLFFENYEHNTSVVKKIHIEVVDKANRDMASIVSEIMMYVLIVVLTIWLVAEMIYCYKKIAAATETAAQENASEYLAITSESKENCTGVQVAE
T2 sequence (Q07699 19-218): as the sequence (Q07699 19-218, further chain) above
T2 sequence (Q99250 whole entry): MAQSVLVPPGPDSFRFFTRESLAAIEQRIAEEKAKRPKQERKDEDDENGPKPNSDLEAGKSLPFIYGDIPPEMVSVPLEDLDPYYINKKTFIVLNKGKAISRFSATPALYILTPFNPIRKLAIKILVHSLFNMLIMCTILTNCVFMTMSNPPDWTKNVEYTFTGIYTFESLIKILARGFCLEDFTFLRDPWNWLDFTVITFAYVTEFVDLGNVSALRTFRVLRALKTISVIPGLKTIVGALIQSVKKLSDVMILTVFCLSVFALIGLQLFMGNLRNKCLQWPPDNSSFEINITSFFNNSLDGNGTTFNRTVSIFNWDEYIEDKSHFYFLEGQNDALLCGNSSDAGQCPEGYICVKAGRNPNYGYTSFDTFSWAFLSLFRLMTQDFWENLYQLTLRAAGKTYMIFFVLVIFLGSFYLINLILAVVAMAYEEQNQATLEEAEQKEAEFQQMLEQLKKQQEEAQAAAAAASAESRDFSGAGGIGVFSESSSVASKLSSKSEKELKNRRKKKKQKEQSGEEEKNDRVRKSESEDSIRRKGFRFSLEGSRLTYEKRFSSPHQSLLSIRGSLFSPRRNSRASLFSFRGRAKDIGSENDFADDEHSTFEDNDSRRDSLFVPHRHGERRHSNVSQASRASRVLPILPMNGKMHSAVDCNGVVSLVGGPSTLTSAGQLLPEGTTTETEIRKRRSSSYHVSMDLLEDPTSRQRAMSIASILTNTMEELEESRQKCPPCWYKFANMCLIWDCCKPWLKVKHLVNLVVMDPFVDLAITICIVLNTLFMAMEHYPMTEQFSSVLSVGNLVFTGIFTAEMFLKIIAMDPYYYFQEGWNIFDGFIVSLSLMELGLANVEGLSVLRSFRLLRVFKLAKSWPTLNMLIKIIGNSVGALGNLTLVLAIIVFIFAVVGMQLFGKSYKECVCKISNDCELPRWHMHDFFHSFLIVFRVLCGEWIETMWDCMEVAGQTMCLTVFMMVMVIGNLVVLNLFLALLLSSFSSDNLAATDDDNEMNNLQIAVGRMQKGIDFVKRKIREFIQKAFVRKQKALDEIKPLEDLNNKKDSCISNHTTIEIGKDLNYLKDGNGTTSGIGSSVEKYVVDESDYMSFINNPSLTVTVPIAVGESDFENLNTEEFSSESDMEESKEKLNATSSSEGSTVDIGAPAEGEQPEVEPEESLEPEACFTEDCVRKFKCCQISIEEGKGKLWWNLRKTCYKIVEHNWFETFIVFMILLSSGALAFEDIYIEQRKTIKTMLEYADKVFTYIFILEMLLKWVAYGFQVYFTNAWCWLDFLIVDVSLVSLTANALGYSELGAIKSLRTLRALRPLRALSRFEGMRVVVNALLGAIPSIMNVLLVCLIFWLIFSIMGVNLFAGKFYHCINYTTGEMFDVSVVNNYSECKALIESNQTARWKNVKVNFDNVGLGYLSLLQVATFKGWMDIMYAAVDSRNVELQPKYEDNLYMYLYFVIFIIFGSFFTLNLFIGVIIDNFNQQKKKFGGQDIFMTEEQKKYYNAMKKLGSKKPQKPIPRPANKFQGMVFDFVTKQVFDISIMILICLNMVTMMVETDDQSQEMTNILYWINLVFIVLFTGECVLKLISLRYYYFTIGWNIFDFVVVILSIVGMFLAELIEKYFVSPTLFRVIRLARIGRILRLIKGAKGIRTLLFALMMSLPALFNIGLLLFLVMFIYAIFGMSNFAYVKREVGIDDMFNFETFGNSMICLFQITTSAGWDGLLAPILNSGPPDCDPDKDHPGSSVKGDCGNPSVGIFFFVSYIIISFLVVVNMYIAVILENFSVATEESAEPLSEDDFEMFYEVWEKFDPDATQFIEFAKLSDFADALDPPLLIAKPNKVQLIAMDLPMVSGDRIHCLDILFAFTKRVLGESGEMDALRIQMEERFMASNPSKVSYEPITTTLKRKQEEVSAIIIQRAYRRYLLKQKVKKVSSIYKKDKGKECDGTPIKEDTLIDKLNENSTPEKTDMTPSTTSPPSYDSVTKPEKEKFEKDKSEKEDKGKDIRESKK

Take `CC(C)C[C@H](NC(=O)[C@H](CC(=O)O)NC(=O)[C@H](Cc1ccc(O)cc1)NC(=O)[C@H](CCCNC(=N)N)NC(=O)[C@@H]1CSSC[C@@H]2NC(=O)[C@H](CCCCN)NC(=O)[C@H](CC(N)=O)NC(=O)[C@H](CC(N)=O)NC(=O)[C@H](CC(N)=O)NC(=O)[C@H](C)NC(=O)[C@H](CC(=O)O)NC(=O)[C@@H]3CSSC[C@H](NC(=O)[C@H](C(C)C)NC(=O)[C@H](Cc4ccc(O)cc4)NC(=O)CNC(=O)[C@H](CCC(=O)O)NC(=O)[C@H](CSSC[C@H](NC(=O)[C@H](CC(=O)O)NC(=O)CN)C(=O)N[C@@H](CC(C)C)C(=O)NCC(=O)N[C@@H](Cc4c[nH]c5ccccc45)C(=O)N[C@@H](Cc4ccccc4)C(=O)N[C@@H](CO)C(=O)NCC(=O)N3)NC2=O)C(=O)N[C@@H](Cc2c[nH]cn2)C(=O)N[C@@H](Cc2c[nH]c3ccccc23)C(=O)N[C@@H](CCCCN)C(=O)N[C@@H](Cc2ccc(O)cc2)C(=O)N2CCC[C@H]2C(=O)N[C@@H](Cc2c[nH]c3ccccc23)C(=O)N1)C(=O)O` [P11A]: the values for the IC50 in assay [1], in assay [2] and in assay [3] were 600 nM, 208 nM and 120 nM, respectively.
As for `CC(C)C[C@H](NC(=O)[C@H](CC(=O)O)NC(=O)[C@H](Cc1ccc(O)cc1)NC(=O)[C@H](CCCNC(=N)N)NC(=O)[C@@H]1CSSC[C@@H]2NC(=O)[C@H](CCCCN)NC(=O)[C@H](CC(N)=O)NC(=O)[C@H](CC(N)=O)NC(=O)[C@H](CC(N)=O)NC(=O)[C@@H]3CCCN3C(=O)[C@H](CC(=O)O)NC(=O)[C@@H]3CSSC[C@H](NC(=O)[C@H](C(C)C)NC(=O)[C@H](Cc4ccc(O)cc4)NC(=O)CNC(=O)[C@H](CCC(=O)O)NC(=O)[C@H](CSSC[C@H](NC(=O)[C@H](CC(=O)O)NC(=O)CN)C(=O)N[C@@H](CC(C)C)C(=O)NCC(=O)N[C@@H](Cc4c[nH]c5ccccc45)C(=O)N[C@@H](Cc4ccccc4)C(=O)N[C@@H](CO)C(=O)NCC(=O)N3)NC2=O)C(=O)N[C@@H](Cc2c[nH]cn2)C(=O)N[C@@H](Cc2c[nH]c3ccccc23)C(=O)N[C@@H](CCCCN)C(=O)N[C@@H](Cc2ccc(O)cc2)C(=O)N[C@@H](C)C(=O)N[C@@H](Cc2c[nH]c3ccccc23)C(=O)N1)C(=O)O` [P27A], the concentration for half-maximal inhibition (IC50) is over 3000 nM in assay [1], 270 nM in assay [2] and 166 nM in assay [3].
Consider `CC(C)C[C@H](NC(=O)[C@H](CC(=O)O)NC(=O)[C@H](Cc1ccc(O)cc1)NC(=O)[C@H](CCCNC(=N)N)NC(=O)[C@@H]1CSSC[C@@H]2NC(=O)[C@H](CCCCN)NC(=O)[C@H](CC(N)=O)NC(=O)[C@H](CC(N)=O)NC(=O)[C@H](CC(N)=O)NC(=O)[C@@H]3CCCN3C(=O)[C@H](CC(=O)O)NC(=O)[C@@H]3CSSC[C@H](NC(=O)[C@H](C(C)C)NC(=O)[C@H](Cc4ccc(O)cc4)NC(=O)CNC(=O)[C@H](CCC(=O)O)NC(=O)[C@H](CSSC[C@H](NC(=O)[C@H](CC(=O)O)NC(=O)CN)C(=O)N[C@@H](CC(C)C)C(=O)NCC(=O)N[C@@H](Cc4c[nH]c5ccccc45)C(=O)N[C@@H](Cc4ccccc4)C(=O)N[C@@H](CO)C(=O)NCC(=O)N3)NC2=O)C(=O)N[C@@H](Cc2c[nH]cn2)C(=O)N[C@@H](Cc2c[nH]c3ccccc23)C(=O)N[C@@H](CCCCN)C(=O)N[C@@H](Cc2ccc(O)cc2)C(=O)N[C@@H](CCCCN)C(=O)N[C@@H](Cc2c[nH]c3ccccc23)C(=O)N1)C(=O)O` [P27K], for which the half-maximal inhibitory concentration (IC50) amounted to 1520 nM in assay [1], 124 nM in assay [2] and 108 nM in assay [3]. For the same compound, the “hNaV1.2-selectivity against hNaV1.3” value in assay [2] is reported as over 10 fold.
The matching figures for `CC(C)C[C@H](NC(=O)[C@H](CC(=O)O)NC(=O)[C@H](Cc1ccc(O)cc1)NC(=O)[C@H](CCCNC(=N)N)NC(=O)[C@@H]1CSSC[C@@H]2NC(=O)[C@H](CCCCN)NC(=O)[C@H](CC(N)=O)NC(=O)[C@H](CC(N)=O)NC(=O)[C@H](CC(N)=O)NC(=O)[C@@H]3CCCN3C(=O)[C@H](CC(=O)O)NC(=O)[C@@H]3CSSC[C@H](NC(=O)[C@H](C(C)C)NC(=O)[C@H](Cc4ccc(O)cc4)NC(=O)CNC(=O)[C@H](CCC(=O)O)NC(=O)[C@H](CSSC[C@H](NC(=O)[C@H](CC(=O)O)NC(=O)CN)C(=O)N[C@@H](CC(C)C)C(=O)NCC(=O)N[C@@H](Cc4c[nH]c5ccccc45)C(=O)N[C@@H](Cc4ccccc4)C(=O)N[C@@H](CO)C(=O)NCC(=O)N3)NC2=O)C(=O)N[C@@H](Cc2c[nH]cn2)C(=O)N[C@@H](Cc2c[nH]c3ccccc23)C(=O)N[C@@H](CCCCN)C(=O)N[C@@H](Cc2ccc(O)cc2)C(=O)N[C@@H](CCCNC(=N)N)C(=O)N[C@@H](Cc2c[nH]c3ccccc23)C(=O)N1)C(=O)O` [P27R]: over 1000 nM, 77 nM, 141 nM and over 10 fold.
On to `CC(C)C[C@H](NC(=O)[C@H](CC(=O)O)NC(=O)[C@H](Cc1ccc(O)cc1)NC(=O)[C@H](C)NC(=O)[C@@H]1CSSC[C@@H]2NC(=O)[C@H](CCCCN)NC(=O)[C@H](CC(N)=O)NC(=O)[C@H](CC(N)=O)NC(=O)[C@H](CC(N)=O)NC(=O)[C@@H]3CCCN3C(=O)[C@H](CC(=O)O)NC(=O)[C@@H]3CSSC[C@H](NC(=O)[C@H](C(C)C)NC(=O)[C@H](Cc4ccc(O)cc4)NC(=O)CNC(=O)[C@H](CCC(=O)O)NC(=O)[C@H](CSSC[C@H](NC(=O)[C@H](CC(=O)O)NC(=O)CN)C(=O)N[C@@H](CC(C)C)C(=O)NCC(=O)N[C@@H](Cc4c[nH]c5ccccc45)C(=O)N[C@@H](Cc4ccccc4)C(=O)N[C@@H](CO)C(=O)NCC(=O)N3)NC2=O)C(=O)N[C@@H](Cc2c[nH]cn2)C(=O)N[C@@H](Cc2c[nH]c3ccccc23)C(=O)N[C@@H](CCCCN)C(=O)N[C@@H](Cc2ccc(O)cc2)C(=O)N2CCC[C@H]2C(=O)N[C@@H](Cc2c[nH]c3ccccc23)C(=O)N1)C(=O)O` [R30A] (H-GDCLGWFSGCDPNNNKCCEGYVCHWKYPWCAYDL-OH; disulfide 3-18, 10-23, 17-30 (inferred); N-terminus and C-terminus assumed), for which the IC50 in assay [1], in assay [2] and in assay [3] was over 1000 nM throughout. The “Loss (reduction) in potency vs rSsp1a at hNaV1.2” value in assay [2] (relative to wild type rSsp1a) is reported as at least 10 fold. Also, in assay [3] (relative to wild type rSsp1a), the “Loss (reduction) in potency vs rSsp1a at hNaV1.7” value is at least 10 fold.
`CC(C)C[C@H](NC(=O)[C@H](CC(=O)O)NC(=O)[C@H](Cc1ccc(O)cc1)NC(=O)[C@H](CCCNC(=N)N)NC(=O)[C@@H]1CSSC[C@@H]2NC(=O)[C@H](CCCCN)NC(=O)[C@H](CC(N)=O)NC(=O)[C@H](CC(N)=O)NC(=O)[C@H](CC(N)=O)NC(=O)[C@@H]3CCCN3C(=O)[C@H](CC(=O)O)NC(=O)[C@@H]3CSSC[C@H](NC(=O)[C@H](C(C)C)NC(=O)[C@H](Cc4ccc(O)cc4)NC(=O)CNC(=O)[C@H](CCC(=O)O)NC(=O)[C@H](CSSC[C@H](NC(=O)[C@H](CC(=O)O)NC(=O)CN)C(=O)N[C@@H](CC(C)C)C(=O)NCC(=O)N[C@@H](Cc4c[nH]c5ccccc45)C(=O)N[C@@H](Cc4ccccc4)C(=O)N[C@@H](CCCCN)C(=O)NCC(=O)N3)NC2=O)C(=O)N[C@@H](Cc2c[nH]cn2)C(=O)N[C@@H](Cc2c[nH]c3ccccc23)C(=O)N[C@@H](CCCCN)C(=O)N[C@@H](Cc2ccc(O)cc2)C(=O)N2CCC[C@H]2C(=O)N[C@@H](Cc2ccccc2)C(=O)N1)C(=O)O` [S7K/W28F] (H-GDCLGWFKGCDPNNNKCCEGYVCHWKYPFCRYDL-OH; disulfide 3-18, 10-23, 17-30): the values for the IC50 in assay [1], in assay [2] and in assay [3] were over 3000 nM, over 3000 nM and 1470 nM, respectively.
As for `CC(C)C[C@H](NC(=O)[C@H](CC(=O)O)NC(=O)[C@H](Cc1ccc(O)cc1)NC(=O)[C@H](CCCNC(=N)N)NC(=O)[C@@H]1CSSC[C@@H]2NC(=O)[C@H](CCCCN)NC(=O)[C@H](CC(N)=O)NC(=O)[C@H](CC(N)=O)NC(=O)[C@H](CC(N)=O)NC(=O)[C@@H]3CCCN3C(=O)[C@H](CC(=O)O)NC(=O)[C@@H]3CSSC[C@H](NC(=O)[C@H](C(C)C)NC(=O)[C@H](Cc4ccc(O)cc4)NC(=O)CNC(=O)[C@H](CCC(=O)O)NC(=O)[C@H](CSSC[C@H](NC(=O)[C@H](CC(=O)O)NC(=O)CN)C(=O)N[C@@H](CC(C)C)C(=O)NCC(=O)N[C@@H](Cc4c[nH]c5ccccc45)C(=O)N[C@@H](Cc4ccccc4)C(=O)N[C@@H](CCCCN)C(=O)NCC(=O)N3)NC2=O)C(=O)N[C@@H](Cc2c[nH]cn2)C(=O)N[C@@H](Cc2c[nH]c3ccccc23)C(=O)N[C@@H](CCCCN)C(=O)N[C@@H](Cc2ccc(O)cc2)C(=O)N2CCC[C@H]2C(=O)N[C@@H](Cc2c[nH]c3ccccc23)C(=O)N1)C(=O)O` [S7K], the 50% inhibitory concentration (IC50) amounted to 929 nM in assay [1], 201 nM in assay [2] and 181 nM in assay [3].
`CC(C)C[C@H](NC(=O)[C@H](CC(=O)O)NC(=O)[C@H](Cc1ccc(O)cc1)NC(=O)[C@H](CCCNC(=N)N)NC(=O)[C@@H]1CSSC[C@@H]2NC(=O)[C@H](CCCCN)NC(=O)[C@H](CC(N)=O)NC(=O)[C@H](CC(N)=O)NC(=O)[C@H](CC(N)=O)NC(=O)[C@@H]3CCCN3C(=O)[C@H](CC(=O)O)NC(=O)[C@@H]3CSSC[C@H](NC(=O)[C@H](C(C)C)NC(=O)[C@H](Cc4ccc(O)cc4)NC(=O)CNC(=O)[C@H](CCC(=O)O)NC(=O)[C@H](CSSC[C@H](NC(=O)[C@H](CC(=O)O)NC(=O)CN)C(=O)N[C@@H](CC(C)C)C(=O)NCC(=O)N[C@@H](Cc4c[nH]c5ccccc45)C(=O)N[C@@H](Cc4ccccc4)C(=O)N[C@@H](CCCNC(=N)N)C(=O)NCC(=O)N3)NC2=O)C(=O)N[C@@H](Cc2c[nH]cn2)C(=O)N[C@@H](Cc2c[nH]c3ccccc23)C(=O)N[C@@H](CCCCN)C(=O)N[C@@H](Cc2ccc(O)cc2)C(=O)N2CCC[C@H]2C(=O)N[C@@H](Cc2c[nH]c3ccccc23)C(=O)N1)C(=O)O` [S7R]: the IC50 in assay [1] was 333 nM; in assay [2], 153 nM; in assay [3] it was 94 nM.

Usually IC50 stands for the concentration that inhibits the measured activity by half.

These data come from article PMC10682951, “Structure-function and rational design of a spider toxin Ssp1a at human voltage-gated sodium channel subtypes” (Frontiers in Pharmacology, 2023).
